The record followed here is the NIST ThermoML archive (doi:10.1016/j.fluid.2018.07.028).

The structures appear in SMILES notation. Numbers after ± are expanded uncertainties.

A short description of this series: activity coefficient (dimensionless); of the first substance listed, at infinite dilution; xn = mol fraction of the nth substance listed. As to conditions: 101.33 kPa, Liquid, Chromatography, x1 = 0.

For the compound `C=CCCC` [1-pentene] + CCCC[P+](CCCC)(CCCC)CCCC.O=S(=O)([N-]S(=O)(=O)C(F)(F)F)C(F)(F)F, the activity coefficient stood at 2.61 ± 0.18 (358.15 K); 2.66 ± 0.18 (368.15 K); 2.7 ± 0.18 (378.15 K); 2.74 ± 0.19 (388.15 K); 2.78 ± 0.19 (398.15 K); 2.82 ± 0.19 (408.15 K).

For `C#CCCC` [1-pentyne] + CCCC[P+](CCCC)(CCCC)CCCC.O=S(=O)([N-]S(=O)(=O)C(F)(F)F)C(F)(F)F, the activity coefficient by setting is: (358.15 K) 1.52 ± 0.1; (368.15 K) 1.58 ± 0.1; (378.15 K) 1.64 ± 0.11; (388.15 K) 1.7 ± 0.11; (398.15 K) 1.76 ± 0.12; (408.15 K) 1.82 ± 0.12.

Turning to `CC(C)CC(C)(C)C` [2,2,4-trimethylpentane] + CCCC[P+](CCCC)(CCCC)CCCC.O=S(=O)([N-]S(=O)(=O)C(F)(F)F)C(F)(F)F, the activity coefficient (358.15 K) amounted to 5.43 ± 0.37; the activity coefficient (368.15 K) was found to be 5.42 ± 0.37; the activity coefficient (378.15 K) is 5.41 ± 0.37; the activity coefficient (388.15 K) came to 5.4 ± 0.37; the activity coefficient (398.15 K) was 5.39 ± 0.37; the activity coefficient (408.15 K) came out at 5.39 ± 0.37.

Turning to `CCC(C)(C)C` [2,2-dimethylbutane] + CCCC[P+](CCCC)(CCCC)CCCC.O=S(=O)([N-]S(=O)(=O)C(F)(F)F)C(F)(F)F, the activity coefficient is, setting by setting: (358.15 K) 3.93 ± 0.27; (368.15 K) 3.98 ± 0.27; (378.15 K) 4.01 ± 0.27; (388.15 K) 4.05 ± 0.28; (398.15 K) 4.08 ± 0.28; (408.15 K) 4.12 ± 0.28.

Regarding `CCOC(C)(C)C` [2-ethoxy-2-methylpropane] + CCCC[P+](CCCC)(CCCC)CCCC.O=S(=O)([N-]S(=O)(=O)C(F)(F)F)C(F)(F)F, the activity coefficient (358.15 K) was 2.72 ± 0.19; the activity coefficient (368.15 K) is 2.78 ± 0.19; the activity coefficient (378.15 K) worked out at 2.84 ± 0.19; the activity coefficient (388.15 K) is 2.91 ± 0.2; the activity coefficient (398.15 K) was 2.96 ± 0.2; the activity coefficient (408.15 K) was 3.02 ± 0.21.

In the case of `CCC(C)(C)OC` [2-methoxy-2-methylbutane] + CCCC[P+](CCCC)(CCCC)CCCC.O=S(=O)([N-]S(=O)(=O)C(F)(F)F)C(F)(F)F, the activity coefficient by setting is: (358.15 K) 2 ± 0.14; (368.15 K) 2.07 ± 0.14; (378.15 K) 2.13 ± 0.14; (388.15 K) 2.2 ± 0.15; (398.15 K) 2.26 ± 0.15; (408.15 K) 2.32 ± 0.16.

Turning to `COC(C)(C)C` [2-methoxy-2-methylpropane] + CCCC[P+](CCCC)(CCCC)CCCC.O=S(=O)([N-]S(=O)(=O)C(F)(F)F)C(F)(F)F, the activity coefficient reads like this: (358.15 K) 1.66 ± 0.11; (368.15 K) 1.73 ± 0.12; (378.15 K) 1.8 ± 0.12; (388.15 K) 1.87 ± 0.13; (398.15 K) 1.94 ± 0.13; (408.15 K) 2.01 ± 0.14.

In the case of `CC(C)CO` [2-methyl-1-propanol] + CCCC[P+](CCCC)(CCCC)CCCC.O=S(=O)([N-]S(=O)(=O)C(F)(F)F)C(F)(F)F, the activity coefficient by setting is: (358.15 K) 1.57 ± 0.1; (368.15 K) 1.52 ± 0.1; (378.15 K) 1.46 ± 0.1; (388.15 K) 1.41 ± 0.09; (398.15 K) 1.37 ± 0.09; (408.15 K) 1.33 ± 0.09.

Regarding `CC(C)(C)O` [2-methylpropan-2-ol] + CCCC[P+](CCCC)(CCCC)CCCC.O=S(=O)([N-]S(=O)(=O)C(F)(F)F)C(F)(F)F, the activity coefficient reads like this: (358.15 K) 1.41 ± 0.09; (368.15 K) 1.4 ± 0.09; (378.15 K) 1.38 ± 0.09; (388.15 K) 1.37 ± 0.09; (398.15 K) 1.36 ± 0.09; (408.15 K) 1.35 ± 0.09.

As to `CCC(C)CC` [3-methylpentane] + CCCC[P+](CCCC)(CCCC)CCCC.O=S(=O)([N-]S(=O)(=O)C(F)(F)F)C(F)(F)F, the activity coefficient stood at 4.02 ± 0.27 (358.15 K); 4.04 ± 0.28 (368.15 K); 4.06 ± 0.28 (378.15 K); 4.09 ± 0.28 (388.15 K); 4.11 ± 0.28 (398.15 K); 4.13 ± 0.28 (408.15 K).

Consider `C=C(C)c1ccccc1` [(1-methylethenyl)benzene] + CCCC[P+](CCCC)(CCCC)CCCC.O=S(=O)([N-]S(=O)(=O)C(F)(F)F)C(F)(F)F, for which the activity coefficient was 1.4 ± 0.09 (358.15 K); 1.46 ± 0.1 (368.15 K); 1.52 ± 0.1 (378.15 K); 1.58 ± 0.1 (388.15 K); 1.64 ± 0.11 (398.15 K); 1.7 ± 0.11 (408.15 K).

Regarding `CC(C)=O` [acetone] + CCCC[P+](CCCC)(CCCC)CCCC.O=S(=O)([N-]S(=O)(=O)C(F)(F)F)C(F)(F)F, the activity coefficient worked out at 0.503 ± 0.038 (358.15 K); 0.524 ± 0.039 (368.15 K); 0.545 ± 0.04 (378.15 K); 0.567 ± 0.041 (388.15 K); 0.587 ± 0.042 (398.15 K); 0.607 ± 0.042 (408.15 K).

In the case of `CC#N` [acetonitrile] + CCCC[P+](CCCC)(CCCC)CCCC.O=S(=O)([N-]S(=O)(=O)C(F)(F)F)C(F)(F)F, the activity coefficient is 0.602 ± 0.042 (358.15 K); 0.613 ± 0.043 (368.15 K); 0.625 ± 0.043 (378.15 K); 0.635 ± 0.044 (388.15 K); 0.645 ± 0.044 (398.15 K); 0.655 ± 0.045 (408.15 K).

Take `c1ccccc1` [benzene] + CCCC[P+](CCCC)(CCCC)CCCC.O=S(=O)([N-]S(=O)(=O)C(F)(F)F)C(F)(F)F: the activity coefficient by setting is: (358.15 K) 0.836 ± 0.054; (368.15 K) 0.869 ± 0.056; (378.15 K) 0.901 ± 0.057; (388.15 K) 0.933 ± 0.059; (398.15 K) 0.963 ± 0.061; (408.15 K) 0.994 ± 0.062.

On to `CCCCO` [butan-1-ol] + CCCC[P+](CCCC)(CCCC)CCCC.O=S(=O)([N-]S(=O)(=O)C(F)(F)F)C(F)(F)F, for which the activity coefficient reads like this: (358.15 K) 1.67 ± 0.11; (368.15 K) 1.61 ± 0.11; (378.15 K) 1.56 ± 0.1; (388.15 K) 1.51 ± 0.1; (398.15 K) 1.46 ± 0.1; (408.15 K) 1.42 ± 0.09.

Take `CCC(C)O` (centres undefined) [butan-2-ol] + CCCC[P+](CCCC)(CCCC)CCCC.O=S(=O)([N-]S(=O)(=O)C(F)(F)F)C(F)(F)F: the activity coefficient came out at 1.53 ± 0.1 (358.15 K); 1.49 ± 0.1 (368.15 K); 1.46 ± 0.1 (378.15 K); 1.43 ± 0.09 (388.15 K); 1.4 ± 0.09 (398.15 K); 1.37 ± 0.09 (408.15 K).

As to `CCCC=O` [butanal] + CCCC[P+](CCCC)(CCCC)CCCC.O=S(=O)([N-]S(=O)(=O)C(F)(F)F)C(F)(F)F, the activity coefficient (358.15 K) is 0.669 ± 0.045; the activity coefficient (368.15 K) was 0.699 ± 0.047; the activity coefficient (378.15 K) was found to be 0.729 ± 0.048; the activity coefficient (388.15 K) stood at 0.758 ± 0.05; the activity coefficient (398.15 K) worked out at 0.787 ± 0.051; the activity coefficient (408.15 K) was 0.817 ± 0.053.

Consider `C1CCCCCC1` [cycloheptane] + CCCC[P+](CCCC)(CCCC)CCCC.O=S(=O)([N-]S(=O)(=O)C(F)(F)F)C(F)(F)F, for which the activity coefficient is, setting by setting: (358.15 K) 3.42 ± 0.23; (368.15 K) 3.41 ± 0.23; (378.15 K) 3.4 ± 0.23; (388.15 K) 3.39 ± 0.23; (398.15 K) 3.38 ± 0.23; (408.15 K) 3.37 ± 0.23.

As for `C1CCCCC1` [cyclohexane] + CCCC[P+](CCCC)(CCCC)CCCC.O=S(=O)([N-]S(=O)(=O)C(F)(F)F)C(F)(F)F, the activity coefficient was 2.85 ± 0.19 (358.15 K); 2.85 ± 0.19 (368.15 K); 2.85 ± 0.19 (378.15 K); 2.86 ± 0.19 (388.15 K); 2.86 ± 0.19 (398.15 K); 2.86 ± 0.19 (408.15 K).

Take `C1=CCCCC1` [cyclohexene] + CCCC[P+](CCCC)(CCCC)CCCC.O=S(=O)([N-]S(=O)(=O)C(F)(F)F)C(F)(F)F: the activity coefficient by setting is: (358.15 K) 2.24 ± 0.15; (368.15 K) 2.27 ± 0.15; (378.15 K) 2.29 ± 0.16; (388.15 K) 2.32 ± 0.16; (398.15 K) 2.34 ± 0.16; (408.15 K) 2.37 ± 0.16.

Regarding `C1CCCCCCC1` [cyclooctane] + CCCC[P+](CCCC)(CCCC)CCCC.O=S(=O)([N-]S(=O)(=O)C(F)(F)F)C(F)(F)F, the activity coefficient reads like this: (358.15 K) 4.08 ± 0.28; (368.15 K) 4.04 ± 0.28; (378.15 K) 4 ± 0.27; (388.15 K) 3.97 ± 0.27; (398.15 K) 3.94 ± 0.27; (408.15 K) 3.91 ± 0.27.

On to `C1CCCC1` [cyclopentane] + CCCC[P+](CCCC)(CCCC)CCCC.O=S(=O)([N-]S(=O)(=O)C(F)(F)F)C(F)(F)F, for which the activity coefficient amounted to 2.33 ± 0.16 (358.15 K); 2.35 ± 0.16 (368.15 K); 2.37 ± 0.16 (378.15 K); 2.38 ± 0.16 (388.15 K); 2.4 ± 0.16 (398.15 K); 2.42 ± 0.16 (408.15 K).

With `CCCCCCCCCC` [decane] + CCCC[P+](CCCC)(CCCC)CCCC.O=S(=O)([N-]S(=O)(=O)C(F)(F)F)C(F)(F)F, the activity coefficient (358.15 K) was determined as 10.4 ± 0.7; the activity coefficient (368.15 K) worked out at 10.1 ± 0.7; the activity coefficient (378.15 K) amounted to 9.88 ± 0.67; the activity coefficient (388.15 K) came to 9.67 ± 0.66; the activity coefficient (398.15 K) worked out at 9.47 ± 0.65; the activity coefficient (408.15 K) is 9.29 ± 0.63.

`CCOCC` [diethyl ether] + CCCC[P+](CCCC)(CCCC)CCCC.O=S(=O)([N-]S(=O)(=O)C(F)(F)F)C(F)(F)F: the activity coefficient reads like this: (358.15 K) 1.65 ± 0.11; (368.15 K) 1.7 ± 0.11; (378.15 K) 1.76 ± 0.12; (388.15 K) 1.8 ± 0.12; (398.15 K) 1.86 ± 0.13; (408.15 K) 1.91 ± 0.13.
